In patent US20250361230A1, “LATS Inhibitors and Uses Thereof” (The USA, as Represented by the Secretary, Dept. of Heath …, priority 2022, published 2025):

Legend:
[1] = target: T1, LATS1 Kinase-NanoLuc fusion in HEK-293 cells (Homo sapiens, UniProt O95835); experiment: NanoBRET target engagement assay in transfected HEK-293 cells, LATS1; assay type: cell-based; conditions: cellular
T1 construct: host or cells: HEK-293
T1 sequence (O95835 1-1130): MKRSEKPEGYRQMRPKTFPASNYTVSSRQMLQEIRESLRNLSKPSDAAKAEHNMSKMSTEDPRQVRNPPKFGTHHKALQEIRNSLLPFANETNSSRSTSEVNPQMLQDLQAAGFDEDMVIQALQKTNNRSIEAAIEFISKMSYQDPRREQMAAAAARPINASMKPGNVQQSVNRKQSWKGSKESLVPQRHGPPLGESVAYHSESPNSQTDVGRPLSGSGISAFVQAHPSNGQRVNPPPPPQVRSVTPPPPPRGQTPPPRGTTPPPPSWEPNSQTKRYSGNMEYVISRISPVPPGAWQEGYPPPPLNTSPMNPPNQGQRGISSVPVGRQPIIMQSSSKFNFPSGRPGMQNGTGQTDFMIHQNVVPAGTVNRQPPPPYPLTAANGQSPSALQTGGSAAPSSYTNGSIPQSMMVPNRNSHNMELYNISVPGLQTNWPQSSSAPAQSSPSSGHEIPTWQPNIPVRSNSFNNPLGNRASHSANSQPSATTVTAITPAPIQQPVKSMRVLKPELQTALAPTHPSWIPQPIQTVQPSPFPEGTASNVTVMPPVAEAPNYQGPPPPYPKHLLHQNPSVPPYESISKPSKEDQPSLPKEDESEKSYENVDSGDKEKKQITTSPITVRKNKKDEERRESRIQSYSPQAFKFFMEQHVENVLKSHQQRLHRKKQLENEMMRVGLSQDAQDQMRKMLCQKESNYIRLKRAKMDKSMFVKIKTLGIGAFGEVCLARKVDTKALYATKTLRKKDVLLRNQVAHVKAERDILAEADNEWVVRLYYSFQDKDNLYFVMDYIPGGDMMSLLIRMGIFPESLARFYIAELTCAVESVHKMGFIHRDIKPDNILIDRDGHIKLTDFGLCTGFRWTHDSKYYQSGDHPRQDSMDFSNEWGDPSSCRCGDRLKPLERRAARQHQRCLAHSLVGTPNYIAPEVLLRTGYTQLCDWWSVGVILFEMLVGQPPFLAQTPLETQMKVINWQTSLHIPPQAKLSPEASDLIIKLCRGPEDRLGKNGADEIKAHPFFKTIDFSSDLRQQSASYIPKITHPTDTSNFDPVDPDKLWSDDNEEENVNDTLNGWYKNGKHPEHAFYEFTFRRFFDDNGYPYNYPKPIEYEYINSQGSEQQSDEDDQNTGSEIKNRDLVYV
In short: (§1)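 HEK-293 cells transiently transfected with kinase-NanoLuc fusion plasmid for 22-24 h, then incubated with compound and NanoBRET tracer for 1 hour at 37° C. After substrate plus extracellular NanoLuc inhibitor addition, 460 and 600 nm emissions read; no-tracer-corrected BRET ratio used to derive IC50 values.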

[2] = target: T2, AKT Kinase-NanoLuc fusion in HEK-293 cells (Homo sapiens, UniProt P31749); experiment: NanoBRET target engagement assay in transfected HEK-293 cells, AKT; assay type: cell-based; conditions: cellular; read-out: AKT (Cellular) IC50
T2 construct: host or cells: HEK-293
In short: as §1

T2 sequence (P31749 whole entry, the tested form may be a part): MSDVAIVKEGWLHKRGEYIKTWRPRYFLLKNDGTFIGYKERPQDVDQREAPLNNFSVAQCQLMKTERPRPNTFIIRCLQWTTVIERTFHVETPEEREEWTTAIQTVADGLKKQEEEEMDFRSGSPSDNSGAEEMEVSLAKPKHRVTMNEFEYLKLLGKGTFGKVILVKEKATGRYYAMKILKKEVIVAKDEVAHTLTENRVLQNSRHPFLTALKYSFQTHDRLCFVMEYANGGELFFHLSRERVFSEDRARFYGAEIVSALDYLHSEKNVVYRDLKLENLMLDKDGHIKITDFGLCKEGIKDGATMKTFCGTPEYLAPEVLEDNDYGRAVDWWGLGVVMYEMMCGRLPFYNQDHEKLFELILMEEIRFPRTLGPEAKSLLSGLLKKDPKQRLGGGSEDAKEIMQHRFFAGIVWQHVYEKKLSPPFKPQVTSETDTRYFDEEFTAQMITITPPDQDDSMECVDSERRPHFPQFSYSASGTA

IC50 [1]: 0.015 µM
IC50 [2]: 28.5 µM
Structure (SMILES): Cc1cc(-c2ccnc3[nH]cc(C#N)c23)ccc1[C@@]1(O)[C@H](C)CN(C2CCS(=O)(=O)CC2)C[C@@H]1C [Compound 2003, 4-(4-((3S,4s,5R)-1-(1,1-dioxidotetrahydro-2H-thiopyran-4-yl)-4-hydroxy-3,5-dimethylpiperidin-4-yl)-3-methylphenyl)-1H-pyrrolo[2,3-b]pyridine-3-carbonitrile]
